{
  "source": "ChEMBL document CHEMBL4251601",
  "about": "(Eur J Med Chem, 2018)",
  "key": {"[1]": {"molecular_target": "Cyclin-dependent kinase 4/cyclin D1 (Homo sapiens, UniProt P11802)", "test": "Inhibition of CDK4/Cyclin-D1 (unknown origin) using histone-H1 as substrate after 90 mins by ADP-Glo assay", "type": "protein-complex assay"}, "[2]": {"test": "Clearance in Sprague-Dawley rat at 2 mg/kg, iv administered as single dose by LC-MS/MS analysis", "type": "ADME, organism-based", "conditions": "in vivo"}, "[3]": {"test": "Volume of distribution at steady state in Sprague-Dawley rat at 2 mg/kg, iv administered as single dose by LC-MS/MS analysis", "type": "ADME, organism-based", "conditions": "in vivo, read-out: Vdss"}, "[4]": {"test": "AUC (0 to 24 hrs) in Sprague-Dawley rat at 2 mg/kg, iv administered as single dose by LC-MS/MS analysis", "type": "ADME, organism-based", "parameters": "dose 2 mg/kg, time < 24 hr, route intravenous", "conditions": "in vivo"}, "[5]": {"test": "Oral bioavailability in Sprague-Dawley rat at 5 mg/kg administered as single dose by LC-MS/MS analysis", "type": "ADME, organism-based", "conditions": "Sprague-Dawley, in vivo"}, "[6]": {"molecular_target": "CDK6/cyclin D3 (Homo sapiens) (UniProt P30281+Q00534)", "test": "Inhibition of recombinant full length human GST-tagged […] expressed in baculovirus expression system at 0.1 uM by TR-FRET assay relative to control"}, "[7]": {"molecular_target": "RAC-beta serine/threonine-protein kinase (Homo sapiens) (UniProt P31751)", "test": "Inhibition of recombinant full length human His-tagged AKT2 expressed in baculovirus expression system at 0.1 uM by TR-FRET assay relative to control"}, "[8]": {"molecular_target": "Serine/threonine-protein kinase MRCK beta (Homo sapiens) (UniProt Q9Y5S2)", "test": "Inhibition of recombinant human His-tagged CDC42 BPB expressed in baculovirus expression system at 0.1 uM by Z'-Lyte assay relative to control"}, "[9]": {"molecular_target": "Casein kinase I isoform alpha (Homo sapiens) (UniProt P48729)", "test": "Inhibition of recombinant full length human GST-tagged CK1alpha expressed in baculovirus expression system at 0.1 uM by Z'-Lyte assay relative to control"}, "[10]": {"molecular_target": "Casein kinase II subunit alpha (Homo sapiens) (UniProt P68400)", "sequence (P68400 whole entry, looked up)": "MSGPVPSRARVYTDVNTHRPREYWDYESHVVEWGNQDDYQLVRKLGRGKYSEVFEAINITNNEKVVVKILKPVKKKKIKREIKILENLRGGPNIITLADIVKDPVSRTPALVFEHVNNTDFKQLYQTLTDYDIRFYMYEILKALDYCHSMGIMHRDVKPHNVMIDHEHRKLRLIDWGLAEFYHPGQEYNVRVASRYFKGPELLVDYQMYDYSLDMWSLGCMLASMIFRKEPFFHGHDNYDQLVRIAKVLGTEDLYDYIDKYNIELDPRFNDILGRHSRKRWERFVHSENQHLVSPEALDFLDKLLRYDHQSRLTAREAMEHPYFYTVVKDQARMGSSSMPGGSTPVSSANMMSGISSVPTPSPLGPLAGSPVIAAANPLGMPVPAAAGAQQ", "test": "Inhibition of recombinant full length human His-tagged CK2alpha1 expressed in baculovirus expression system at 0.1 uM by Z'-Lyte assay relative to control"}, "[11]": {"molecular_target": "G protein-coupled receptor kinase 3 (Homo sapiens) (UniProt P35626)", "sequence (P35626 whole entry)": "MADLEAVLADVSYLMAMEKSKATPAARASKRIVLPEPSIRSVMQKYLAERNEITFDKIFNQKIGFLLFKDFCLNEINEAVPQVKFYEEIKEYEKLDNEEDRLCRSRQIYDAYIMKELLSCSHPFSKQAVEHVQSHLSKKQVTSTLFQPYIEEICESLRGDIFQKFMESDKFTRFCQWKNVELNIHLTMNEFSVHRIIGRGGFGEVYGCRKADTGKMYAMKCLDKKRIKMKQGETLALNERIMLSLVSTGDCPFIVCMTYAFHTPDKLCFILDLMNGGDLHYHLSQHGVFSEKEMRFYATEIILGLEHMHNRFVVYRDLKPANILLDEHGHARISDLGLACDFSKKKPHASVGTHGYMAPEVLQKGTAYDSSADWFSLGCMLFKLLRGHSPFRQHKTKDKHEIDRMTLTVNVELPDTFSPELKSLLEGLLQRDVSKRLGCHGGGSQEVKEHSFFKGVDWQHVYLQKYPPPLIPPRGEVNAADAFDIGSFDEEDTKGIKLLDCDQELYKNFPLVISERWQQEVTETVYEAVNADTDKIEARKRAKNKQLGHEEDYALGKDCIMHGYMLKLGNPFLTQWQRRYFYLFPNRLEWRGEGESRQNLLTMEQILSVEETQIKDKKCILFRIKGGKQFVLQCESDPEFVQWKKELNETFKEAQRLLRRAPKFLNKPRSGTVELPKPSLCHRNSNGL", "test": "Inhibition of recombinant human full length GST-tagged GRK3 expressed in baculovirus expression system at 0.1 uM by Z'-Lyte assay relative to control"}, "[12]": {"molecular_target": "Tyrosine-protein kinase JAK2 (Homo sapiens) (UniProt O60674)", "test": "Inhibition of recombinant human GST-tagged JAK2 expressed in baculovirus expression system at 0.1 uM by TR-FRET assay relative to control"}, "[13]": {"molecular_target": "Tyrosine-protein kinase JAK3 (Homo sapiens) (UniProt P52333)", "sequence (P52333 whole entry)": "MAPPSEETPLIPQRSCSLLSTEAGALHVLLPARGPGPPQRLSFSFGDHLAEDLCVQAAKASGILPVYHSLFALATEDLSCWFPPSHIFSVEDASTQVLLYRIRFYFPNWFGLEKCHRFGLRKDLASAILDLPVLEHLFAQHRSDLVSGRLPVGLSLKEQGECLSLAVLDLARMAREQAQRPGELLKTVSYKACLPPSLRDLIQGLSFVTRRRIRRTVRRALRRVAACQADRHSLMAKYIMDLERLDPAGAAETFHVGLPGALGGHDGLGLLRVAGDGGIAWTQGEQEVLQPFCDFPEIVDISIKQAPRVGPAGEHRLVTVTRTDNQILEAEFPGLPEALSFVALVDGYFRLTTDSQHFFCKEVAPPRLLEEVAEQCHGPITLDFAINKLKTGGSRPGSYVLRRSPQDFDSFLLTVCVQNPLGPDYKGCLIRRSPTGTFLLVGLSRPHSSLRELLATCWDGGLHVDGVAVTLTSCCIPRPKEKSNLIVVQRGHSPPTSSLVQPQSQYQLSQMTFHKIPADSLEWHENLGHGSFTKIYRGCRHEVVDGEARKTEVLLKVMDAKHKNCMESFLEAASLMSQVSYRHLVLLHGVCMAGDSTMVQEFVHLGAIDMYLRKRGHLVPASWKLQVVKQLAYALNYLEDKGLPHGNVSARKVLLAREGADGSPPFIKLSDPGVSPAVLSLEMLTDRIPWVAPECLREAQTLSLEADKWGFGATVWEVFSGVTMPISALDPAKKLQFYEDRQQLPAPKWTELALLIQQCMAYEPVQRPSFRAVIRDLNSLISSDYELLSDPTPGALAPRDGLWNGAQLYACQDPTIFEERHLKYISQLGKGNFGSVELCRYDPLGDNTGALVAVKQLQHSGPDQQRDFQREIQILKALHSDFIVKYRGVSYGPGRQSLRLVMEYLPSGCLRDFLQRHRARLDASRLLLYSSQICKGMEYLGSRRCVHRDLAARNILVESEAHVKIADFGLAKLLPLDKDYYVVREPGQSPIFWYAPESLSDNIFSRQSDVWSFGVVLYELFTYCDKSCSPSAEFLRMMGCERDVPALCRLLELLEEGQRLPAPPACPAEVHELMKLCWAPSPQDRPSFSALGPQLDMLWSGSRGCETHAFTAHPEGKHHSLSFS", "test": "Inhibition of recombinant human GST-tagged JAK3 expressed in baculovirus expression system at 0.1 uM by TR-FRET assay relative to control"}, "[14]": {"molecular_target": "Mitogen-activated protein kinase 8 (Homo sapiens) (UniProt P45983)", "sequence (P45983 whole entry)": "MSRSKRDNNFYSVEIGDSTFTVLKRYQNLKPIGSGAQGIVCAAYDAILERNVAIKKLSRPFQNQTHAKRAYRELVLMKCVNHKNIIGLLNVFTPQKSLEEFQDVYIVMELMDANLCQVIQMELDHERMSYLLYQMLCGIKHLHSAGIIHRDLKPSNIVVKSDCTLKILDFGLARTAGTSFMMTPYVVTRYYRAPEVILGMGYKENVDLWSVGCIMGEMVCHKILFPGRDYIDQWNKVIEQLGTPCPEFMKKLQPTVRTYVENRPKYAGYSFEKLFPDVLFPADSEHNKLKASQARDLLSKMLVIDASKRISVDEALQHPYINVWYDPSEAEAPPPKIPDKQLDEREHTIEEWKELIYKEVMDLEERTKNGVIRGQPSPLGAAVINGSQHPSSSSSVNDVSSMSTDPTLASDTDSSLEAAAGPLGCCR", "test": "Inhibition of recombinant human full length His-tagged JNK1 expressed in baculovirus expression system at 0.1 uM by Z'-Lyte assay relative to control"}, "[15]": {"molecular_target": "Leucine-rich repeat serine/threonine-protein kinase 2 (Homo sapiens) (UniProt Q5S007)", "test": "Inhibition of recombinant human GST-tagged LRRK2 (970 to 2527 residues) expressed in baculovirus expression system at 0.1 uM by TR-FRET assay relative to control"}, "[16]": {"molecular_target": "MAP kinase-activated protein kinase 2 (Homo sapiens) (UniProt P49137)", "test": "Inhibition of recombinant human full length His-tagged MK2 expressed in Escherichia coli at 0.1 uM by Z'-Lyte assay relative to control"}, "[17]": {"molecular_target": "Serine/threonine-protein kinase PAK 4 (Homo sapiens) (UniProt O96013)", "test": "Inhibition of recombinant human GST-tagged PAK4 expressed in baculovirus expression system at 0.1 uM by Z'-Lyte assay relative to control"}, "[18]": {"molecular_target": "3-phosphoinositide-dependent protein kinase 1 (Homo sapiens) (UniProt O15530)", "sequence (O15530 whole entry)": "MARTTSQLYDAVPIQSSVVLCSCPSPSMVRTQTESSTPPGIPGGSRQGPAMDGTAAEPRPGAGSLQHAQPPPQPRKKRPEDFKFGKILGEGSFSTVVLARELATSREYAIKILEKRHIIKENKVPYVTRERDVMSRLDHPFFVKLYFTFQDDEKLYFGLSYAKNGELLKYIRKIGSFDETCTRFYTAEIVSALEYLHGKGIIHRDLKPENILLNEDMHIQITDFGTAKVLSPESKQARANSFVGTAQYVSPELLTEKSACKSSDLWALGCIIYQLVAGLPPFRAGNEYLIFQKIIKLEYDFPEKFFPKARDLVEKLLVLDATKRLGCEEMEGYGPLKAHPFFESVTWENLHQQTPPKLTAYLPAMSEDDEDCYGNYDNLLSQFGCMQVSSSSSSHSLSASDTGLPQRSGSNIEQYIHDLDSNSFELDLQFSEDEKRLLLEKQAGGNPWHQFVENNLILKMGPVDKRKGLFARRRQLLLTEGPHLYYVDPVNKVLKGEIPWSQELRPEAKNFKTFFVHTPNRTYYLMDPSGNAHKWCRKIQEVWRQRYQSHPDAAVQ", "test": "Inhibition of recombinant human full length His-tagged PDK1 expressed in baculovirus expression system at 0.1 uM by Z'-Lyte assay relative to control"}, "[19]": {"molecular_target": "Phosphatidylinositol 4,5-bisphosphate 3-kinase catalytic subunit gamma isoform (Homo sapiens) (UniProt P48736)", "sequence (P48736 whole entry, looked up, canonical isoform)": "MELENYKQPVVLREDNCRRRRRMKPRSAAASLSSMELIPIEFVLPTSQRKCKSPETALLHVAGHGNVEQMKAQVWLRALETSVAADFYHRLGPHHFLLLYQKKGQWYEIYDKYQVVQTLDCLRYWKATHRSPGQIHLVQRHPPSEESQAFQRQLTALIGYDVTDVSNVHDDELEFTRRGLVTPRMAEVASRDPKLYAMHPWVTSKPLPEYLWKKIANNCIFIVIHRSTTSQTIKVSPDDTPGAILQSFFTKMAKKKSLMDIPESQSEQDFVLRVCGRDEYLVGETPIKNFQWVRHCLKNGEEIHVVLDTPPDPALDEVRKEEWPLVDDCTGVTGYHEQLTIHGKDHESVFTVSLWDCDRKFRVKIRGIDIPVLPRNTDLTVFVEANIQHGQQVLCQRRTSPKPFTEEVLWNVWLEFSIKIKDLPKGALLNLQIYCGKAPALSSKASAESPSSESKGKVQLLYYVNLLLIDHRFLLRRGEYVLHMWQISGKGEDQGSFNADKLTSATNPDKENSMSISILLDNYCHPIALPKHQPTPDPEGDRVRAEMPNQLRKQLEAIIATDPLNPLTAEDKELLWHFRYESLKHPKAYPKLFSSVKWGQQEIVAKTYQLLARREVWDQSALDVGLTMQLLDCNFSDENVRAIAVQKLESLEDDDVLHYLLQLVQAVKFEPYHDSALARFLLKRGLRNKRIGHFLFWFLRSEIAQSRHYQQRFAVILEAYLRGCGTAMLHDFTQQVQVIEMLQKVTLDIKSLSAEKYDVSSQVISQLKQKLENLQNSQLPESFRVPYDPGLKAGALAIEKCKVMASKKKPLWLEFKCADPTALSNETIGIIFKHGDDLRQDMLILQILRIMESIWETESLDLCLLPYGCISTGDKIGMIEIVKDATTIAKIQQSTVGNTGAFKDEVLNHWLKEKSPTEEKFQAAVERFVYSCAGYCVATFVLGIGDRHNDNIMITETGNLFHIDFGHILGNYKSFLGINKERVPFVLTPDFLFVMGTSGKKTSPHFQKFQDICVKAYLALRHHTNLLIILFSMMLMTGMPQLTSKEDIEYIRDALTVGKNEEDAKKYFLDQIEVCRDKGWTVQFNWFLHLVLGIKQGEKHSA", "test": "Inhibition of PI3K gamma (unknown origin) at 0.1 uM by ADP-Glo assay relative to control"}, "[20]": {"molecular_target": "Tyrosine-protein kinase Tec (Homo sapiens) (UniProt P42680)", "test": "Inhibition of recombinant human full length His-tagged TEC expressed in baculovirus expression system at 0.1 uM by TR-FRET assay relative to control"}, "[21]": {"molecular_target": "Tyrosine-protein kinase receptor TYRO3 (Homo sapiens) (UniProt Q06418)", "test": "Inhibition of recombinant human GST-tagged TYRO3 cytoplasmic domain (451 to 890 residues) expressed in baculovirus expression system at 0.1 uM by Z'-Lyte assay relative to control"}, "[22]": {"molecular_target": "CDK8/Cyclin C (Homo sapiens) (UniProt P49336+P24863)", "test": "Inhibition of recombinant full length human His-tagged CDK8/Cyclin-C expressed in baculovirus expression system at 1 uM by LanthaScreen assay relative to control"}, "[23]": {"molecular_target": "Cytoplasmic tyrosine-protein kinase BMX (Homo sapiens) (UniProt P51813)", "test": "Inhibition of recombinant full length human His-tagged BMX expressed in baculovirus expression system at 1 uM by TR-FRET assay relative to control"}, "[24]": {"molecular_target": "Casein kinase I isoform gamma-1 (Homo sapiens) (UniProt Q9HCP0)", "test": "Inhibition of recombinant full length human GST-tagged CK1gamma1 expressed in baculovirus expression system at 1 uM by Z'-Lyte assay relative to control"}, "[25]": {"molecular_target": "G protein-coupled receptor kinase 4 (Homo sapiens) (UniProt P32298)", "test": "Inhibition of recombinant human full length GST-tagged GRK4 expressed in baculovirus expression system at 1 uM by Z'-Lyte assay relative to control"}, "[26]": {"molecular_target": "Phosphatidylinositol 4,5-bisphosphate 3-kinase catalytic subunit gamma isoform (Homo sapiens) (UniProt P48736)", "test": "Inhibition of PI3K gamma (unknown origin) at 1 uM by ADP-Glo assay relative to control"}, "[27]": {"molecular_target": "Serine/threonine-protein kinase PLK1 (Homo sapiens) (UniProt P53350)", "sequence (P53350 whole entry)": "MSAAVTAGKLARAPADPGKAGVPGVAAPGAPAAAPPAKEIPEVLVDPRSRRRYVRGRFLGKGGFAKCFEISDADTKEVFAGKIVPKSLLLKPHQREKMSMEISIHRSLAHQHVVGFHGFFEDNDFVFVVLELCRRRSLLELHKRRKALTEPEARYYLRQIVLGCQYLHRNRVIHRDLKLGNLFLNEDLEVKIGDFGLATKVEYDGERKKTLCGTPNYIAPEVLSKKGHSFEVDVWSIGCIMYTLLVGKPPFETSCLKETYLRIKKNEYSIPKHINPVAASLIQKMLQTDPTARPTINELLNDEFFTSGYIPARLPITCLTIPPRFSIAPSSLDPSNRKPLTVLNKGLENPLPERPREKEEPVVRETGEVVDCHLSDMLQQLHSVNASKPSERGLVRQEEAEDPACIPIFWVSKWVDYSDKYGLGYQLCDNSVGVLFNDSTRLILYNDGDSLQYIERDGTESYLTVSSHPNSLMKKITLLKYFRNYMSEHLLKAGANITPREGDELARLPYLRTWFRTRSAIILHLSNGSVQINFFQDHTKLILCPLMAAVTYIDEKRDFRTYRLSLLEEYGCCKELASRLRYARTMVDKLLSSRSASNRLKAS", "test": "Inhibition of recombinant human full length His-tagged PLK1 expressed in baculovirus expression system at 1 uM by Z'-Lyte assay relative to control"}, "[28]": {"test": "Tmax in CD-1 mouse plasma at 10 mg/kg, po administered as single dose by LC-MS/MS analysis", "type": "ADME, organism-based"}, "[29]": {"test": "AUC (0 to infinity) in CD-1 mouse brain at 10 mg/kg, po administered as single dose by LC-MS/MS analysis", "type": "ADME, organism-based", "parameters": "dose 10 mg/kg, time infinity, route oral", "conditions": "in vivo"}, "U-87 MG": {"tested_on": "U-87 MG", "test": "Antitumor activity against luciferase-fused human U87MG cells orthotopically xenografted in nude mouse assessed as tumor growth inhibition at 12.5 mg/kg, po qd for 4 weeks by bioluminescence imaging relative to control", "type": "functional, U-87MG ATCC", "conditions": "672 h, read-out: TGI"}, "Mus musculus": {"tested_on": "Mus musculus", "test": "Toxicity in nude mouse orthotopically xenografted with luciferase-fused human U87MG cells assessed as body weight loss at 50 mg/kg, po qd for 5 weeks and measured on day 28 relative to control", "type": "organism-based", "conditions": "in vivo, 840 h"}},
  "data": [
    {"compound": "CC1=Nc2c(F)cc(-c3nc(Nc4ccc(C5CCN(C)CC5)cn4)ncc3F)cc2C12CCCC2", "note": "[CROZBACICLIB]", "values": [
      {"measurement": "IC50", "setting": "[1]", "value": 3, "unit": "nM"},
      {"measurement": "clearance", "setting": "[2]", "value": 34.9, "unit": "mL/min/kg"},
      {"measurement": "Vd", "setting": "[3]", "value": 17.4, "unit": "L/kg"},
      {"measurement": "AUC(0-t) at 24 h", "setting": "[4]", "value": 886, "unit": "ng·h/mL"},
      {"measurement": "bioavailability", "setting": "[5]", "value": 66, "unit": "%"},
      {"measurement": "inhibition", "setting": "[6]", "value": 100, "unit": "%"},
      {"measurement": "inhibition", "setting": "[7]", "value": 1, "unit": "%"},
      {"measurement": "inhibition", "setting": "[8]", "value": 15, "unit": "%"},
      {"measurement": "inhibition", "setting": "[9]", "value": -3, "unit": "%"},
      {"measurement": "inhibition", "setting": "[10]", "value": 5, "unit": "%"},
      {"measurement": "inhibition", "setting": "[11]", "value": -7, "unit": "%"},
      {"measurement": "inhibition", "setting": "[12]", "value": 24, "unit": "%"},
      {"measurement": "inhibition", "setting": "[13]", "value": 56, "unit": "%"},
      {"measurement": "inhibition", "setting": "[14]", "value": 6, "unit": "%"},
      {"measurement": "inhibition", "setting": "[15]", "value": 12, "unit": "%"},
      {"measurement": "inhibition", "setting": "[16]", "value": 0, "unit": "%"},
      {"measurement": "inhibition", "setting": "[17]", "value": 4, "unit": "%"},
      {"measurement": "inhibition", "setting": "[18]", "value": -3, "unit": "%"},
      {"measurement": "inhibition", "setting": "[19]", "value": -5, "unit": "%"},
      {"measurement": "inhibition", "setting": "[20]", "value": 11, "unit": "%"},
      {"measurement": "inhibition", "setting": "[21]", "value": 0, "unit": "%"},
      {"measurement": "inhibition", "setting": "[22]", "value": 85, "unit": "%"},
      {"measurement": "inhibition", "setting": "[23]", "value": 19, "unit": "%"},
      {"measurement": "inhibition", "setting": "[24]", "value": 5, "unit": "%"},
      {"measurement": "inhibition", "setting": "[25]", "value": 1, "unit": "%"},
      {"measurement": "inhibition", "setting": "[26]", "value": 19, "unit": "%"},
      {"measurement": "inhibition", "setting": "[27]", "value": 0, "unit": "%"},
      {"measurement": "Tmax", "setting": "[28]", "value": 2, "unit": "h"},
      {"measurement": "AUC", "setting": "[29]", "value": 37438, "unit": "ng·h/g"},
      {"measurement": "inhibition in vivo at 12.5 mg/kg", "setting": "U-87 MG", "value": 92, "unit": "%"},
      {"measurement": "Activity", "setting": "Mus musculus", "value": 4.2, "unit": "%"}
    ]}
  ]
}
